Experimental data reported in ChEMBL document CHEMBL4152237, “Identification of novel β-lactams and pyrrolidinone derivatives as selective Histamine-3 receptor (H3R) modulators as possible anti-obesity agents” (Eur J Med Chem, 2018).
The source made the active and inactive calls. Unless noted, the rule behind the calls is not given here.

Key:
Mus musculus [1] = experiment: Anorexic effect in diet-induced obese C57BL/6J mouse assessed as reduction in cumulative food intake at 10 mg/kg, po pretreated for 30 mins followed by food addition measured after 4 hrs; format: functional, organism-based
[2] = Octanol/water partition co-efficient, log P of the compound after 24 hrs by HPLC based shake-flask method; format: physicochemical
Histamine H3 receptor [3] = target: T1, Histamine H3 receptor (Homo sapiens, UniProt Q9Y5N1); experiment: (§1) Agonist activity at human H3R expressed in HEK293 cells harboring glosensor-22F cAMP plasmid DNA assessed as inhibition of forskolin-stimulated cAMP accumulation preincubated with cells followed by forskolin addition measured after 10 mins by luminescence assay; format: functional, cell-based; details: read-out: EC50
T1 sequence (Q9Y5N1 whole entry): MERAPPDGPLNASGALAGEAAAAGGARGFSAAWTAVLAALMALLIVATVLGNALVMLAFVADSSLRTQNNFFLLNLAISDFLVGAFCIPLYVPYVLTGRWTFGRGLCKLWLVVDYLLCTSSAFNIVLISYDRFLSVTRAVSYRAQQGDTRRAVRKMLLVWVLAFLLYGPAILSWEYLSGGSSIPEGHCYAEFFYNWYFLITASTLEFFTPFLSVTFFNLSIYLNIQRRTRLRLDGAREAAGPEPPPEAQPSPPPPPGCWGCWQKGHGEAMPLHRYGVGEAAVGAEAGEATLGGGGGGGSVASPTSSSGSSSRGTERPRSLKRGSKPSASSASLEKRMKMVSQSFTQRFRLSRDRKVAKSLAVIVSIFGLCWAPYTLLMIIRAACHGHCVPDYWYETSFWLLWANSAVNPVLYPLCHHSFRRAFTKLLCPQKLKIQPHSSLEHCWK

Histamine H3 receptor [4] = target: T1, Histamine H3 receptor; experiment: as §1, with “accumulation at 1 uM” for “accumulation”, “mins in presence of H3R antagonist GSK334429” for “mins”; format: functional, cell-based
[5] = target: T2, 5-hydroxytryptamine receptor 2C (Homo sapiens) (UniProt P28335); experiment: Agonist activity at human 5-HT2C expressed in HEK293 cells harboring luc2P/NFAT-RE plasmid at 10 uM after 6 to 8 hrs by luciferase reporter gene assay; format: functional, cell-based
T2 sequence (whole entry): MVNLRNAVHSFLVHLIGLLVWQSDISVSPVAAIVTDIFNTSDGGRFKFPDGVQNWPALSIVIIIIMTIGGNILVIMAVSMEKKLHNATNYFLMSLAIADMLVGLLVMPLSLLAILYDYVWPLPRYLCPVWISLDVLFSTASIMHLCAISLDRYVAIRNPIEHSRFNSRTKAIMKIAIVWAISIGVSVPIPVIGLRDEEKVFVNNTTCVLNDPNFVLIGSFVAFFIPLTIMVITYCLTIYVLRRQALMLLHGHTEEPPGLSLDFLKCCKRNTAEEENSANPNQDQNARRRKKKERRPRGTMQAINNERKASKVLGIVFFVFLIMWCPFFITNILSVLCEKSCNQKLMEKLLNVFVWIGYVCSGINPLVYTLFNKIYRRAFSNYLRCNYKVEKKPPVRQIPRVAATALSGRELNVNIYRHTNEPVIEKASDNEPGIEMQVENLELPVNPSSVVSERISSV

[6] = target: Histamine H1 receptor (Homo sapiens) (UniProt P35367); experiment: Agonist activity at H1R (unknown origin) expressed in HEK293 cells harboring luc2P/NFAT-RE plasmid at 10 uM after 6 to 8 hrs by luciferase reporter gene assay; format: functional, cell-based
Chain of Histamine H1 receptor (Homo sapiens) (P35367 whole entry): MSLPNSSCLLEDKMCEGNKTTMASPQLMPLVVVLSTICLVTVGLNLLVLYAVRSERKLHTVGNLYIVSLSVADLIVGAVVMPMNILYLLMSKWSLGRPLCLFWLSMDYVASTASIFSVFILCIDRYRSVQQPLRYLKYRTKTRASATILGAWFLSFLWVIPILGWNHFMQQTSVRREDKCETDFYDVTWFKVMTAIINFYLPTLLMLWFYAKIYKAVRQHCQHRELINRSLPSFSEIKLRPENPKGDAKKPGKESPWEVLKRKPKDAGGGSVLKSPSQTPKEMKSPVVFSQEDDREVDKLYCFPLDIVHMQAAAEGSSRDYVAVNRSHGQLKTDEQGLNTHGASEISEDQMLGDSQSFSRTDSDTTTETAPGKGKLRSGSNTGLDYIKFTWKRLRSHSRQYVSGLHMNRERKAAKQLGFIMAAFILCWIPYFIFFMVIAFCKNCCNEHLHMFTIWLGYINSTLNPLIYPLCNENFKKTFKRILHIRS

[7] = target: Histamine H2 receptor (Homo sapiens) (UniProt P25021); experiment: Agonist activity at H2R (unknown origin) expressed in HEK293 cells harboring glosensor-22F cAMP plasmid DNA assessed as inhibition of forskolin-stimulated cAMP accumulation at 10 uM preincubated with cells followed by forskolin addition measured after 10 mins by luminescence assay; format: functional, cell-based
Chain of Histamine H2 receptor (Homo sapiens) (P25021 whole entry): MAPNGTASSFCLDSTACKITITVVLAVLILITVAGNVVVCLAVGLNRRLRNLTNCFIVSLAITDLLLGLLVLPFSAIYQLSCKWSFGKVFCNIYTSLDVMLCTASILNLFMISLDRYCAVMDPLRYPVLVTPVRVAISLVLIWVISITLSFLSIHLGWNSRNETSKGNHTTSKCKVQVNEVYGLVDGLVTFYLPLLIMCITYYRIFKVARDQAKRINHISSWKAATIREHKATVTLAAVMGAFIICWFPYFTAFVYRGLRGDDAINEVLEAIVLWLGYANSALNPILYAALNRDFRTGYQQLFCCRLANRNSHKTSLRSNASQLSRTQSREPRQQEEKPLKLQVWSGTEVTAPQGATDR

[8] = target: Histamine H4 receptor (Homo sapiens) (UniProt Q9H3N8); experiment: Agonist activity at H4R (unknown origin) expressed in HEK293 cells harboring glosensor-22F cAMP plasmid DNA assessed as inhibition of forskolin-stimulated cAMP accumulation at 10 uM preincubated with cells followed by forskolin addition measured after 10 mins by luminescence assay; format: functional, cell-based
Chain of Histamine H4 receptor (Homo sapiens) (Q9H3N8 whole entry): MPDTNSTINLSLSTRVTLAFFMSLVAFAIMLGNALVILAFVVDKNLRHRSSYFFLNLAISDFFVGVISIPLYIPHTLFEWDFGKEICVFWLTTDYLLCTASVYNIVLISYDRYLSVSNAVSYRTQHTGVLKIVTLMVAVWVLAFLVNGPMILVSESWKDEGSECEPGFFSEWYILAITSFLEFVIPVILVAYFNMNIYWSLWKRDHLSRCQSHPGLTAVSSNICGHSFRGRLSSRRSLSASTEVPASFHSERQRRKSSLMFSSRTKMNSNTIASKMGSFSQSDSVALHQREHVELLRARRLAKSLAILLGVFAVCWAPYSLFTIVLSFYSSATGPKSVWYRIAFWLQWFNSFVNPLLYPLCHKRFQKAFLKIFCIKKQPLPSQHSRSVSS

[9] = target: Luciferin 4-monooxygenase (Photinus pyralis) (UniProt P08659); experiment: Inhibition of firefly luciferase activity expressed in HEK293 cells assessed as reduction in forskolin-stimulated cAMP accumulation up to 10 uM preincubated with cells followed by forskolin addition measured after 10 mins by luminescence assay; format: cell-based
Chain of Luciferin 4-monooxygenase (Photinus pyralis) (P08659 whole entry): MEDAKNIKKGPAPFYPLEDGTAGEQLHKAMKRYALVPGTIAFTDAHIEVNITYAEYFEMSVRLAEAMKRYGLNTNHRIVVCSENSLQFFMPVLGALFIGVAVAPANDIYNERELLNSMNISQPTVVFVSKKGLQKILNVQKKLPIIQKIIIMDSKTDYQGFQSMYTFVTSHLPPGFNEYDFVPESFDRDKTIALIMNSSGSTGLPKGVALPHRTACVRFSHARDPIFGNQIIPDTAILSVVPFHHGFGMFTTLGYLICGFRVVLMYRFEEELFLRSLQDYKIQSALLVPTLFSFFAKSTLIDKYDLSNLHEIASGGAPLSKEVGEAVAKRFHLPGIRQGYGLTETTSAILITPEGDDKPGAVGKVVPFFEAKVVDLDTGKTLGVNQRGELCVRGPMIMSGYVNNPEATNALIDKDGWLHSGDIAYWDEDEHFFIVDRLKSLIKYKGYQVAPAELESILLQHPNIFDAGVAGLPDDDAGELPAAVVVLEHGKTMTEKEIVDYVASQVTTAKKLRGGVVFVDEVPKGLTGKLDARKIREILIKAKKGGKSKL

HEK-293T = experiment: Cytotoxicity against HEK293T cells assessed as reduction in cell viability at 1 to 10 uM after 24 hrs by XTT assay; format: cell-based; details: human
[10] = target: Histamine H1 receptor (Homo sapiens) (UniProt P35367); experiment: Antagonist activity at H1R (unknown origin) expressed in HEK293 cells harboring luc2P/NFAT-RE plasmid at 10 uM after 6 to 8 hrs by luciferase reporter gene assay; format: functional, cell-based
[11] = target: Histamine H2 receptor (Homo sapiens) (UniProt P25021); experiment: Antagonist activity at H2R (unknown origin) expressed in HEK293 cells harboring glosensor-22F cAMP plasmid DNA assessed as effect on forskolin-stimulated cAMP accumulation at 10 uM preincubated with cells followed by forskolin addition measured after 10 mins by luminescence assay; format: functional, cell-based
[12] = target: Histamine H4 receptor (Homo sapiens) (UniProt Q9H3N8); experiment: Antagonist activity at H4R (unknown origin) expressed in HEK293 cells harboring glosensor-22F cAMP plasmid DNA assessed as effect on forskolin-stimulated cAMP accumulation at 10 uM preincubated with cells followed by forskolin addition measured after 10 mins by luminescence assay; format: functional, cell-based
[13] = target: T2, 5-hydroxytryptamine receptor 2C (Homo sapiens); experiment: Antagonist activity at human 5-HT2C expressed in HEK293 cells harboring luc2P/NFAT-RE plasmid at 10 uM after 6 to 8 hrs by luciferase reporter gene assay; format: functional, cell-based
Mus musculus [14] = experiment: Anorexic effect in diet-induced obese C57BL/6J mouse assessed as reduction in cumulative food intake at 20 mg/kg, po pretreated for 30 mins followed by food addition measured after 4 hrs; format: functional, organism-based

C[C@H]1CNCCc2ccc(Cl)cc21
Activity (Mus musculus [1]): Active

COc1cc(N2C(=O)C(=Cc3ccccc3)C2(C(=O)NC2CCCCC2)c2ccc(F)cc2)cc(OC)c1OC (stereo unspecified)
logP at 24 h [2]: 1.85 | EC50 (Histamine H3 receptor [3]): 0.104 µM | inhibition (Histamine H3 receptor [4]): inactive | Activity [5]: inactive | Activity [6]: inactive | inhibition [7]: inactive | inhibition [8]: inactive | inhibition [9]: inactive | Activity (HEK-293T): Non-Toxic | inhibition [10]: inactive | inhibition [11]: inactive | inhibition [12]: inactive | inhibition [13]: inactive

O=C1C=C[C@]23C(c4ccccc4)=CC(=O)N2[C@H](c2ccc([N+](=O)[O-])cc2)C(=O)N[C@@H]3C1
logP at 24 h [2]: 1.78 | EC50 (Histamine H3 receptor [3]): 0.0003 µM | inhibition (Histamine H3 receptor [4]): inactive | Activity [5]: inactive | Activity [6]: inactive | inhibition [7]: inactive | inhibition [8]: inactive | inhibition [9]: inactive | Activity (HEK-293T): Non-Toxic | inhibition [10]: inactive | inhibition [11]: inactive | inhibition [12]: inactive | inhibition [13]: inactive

O=C1C=C[C@]23C(c4ccccc4)=CC(=O)N2[C@H](c2ccc(C(F)(F)F)cc2)C(=O)N[C@@H]3C1
logP at 24 h [2]: 2.1 | EC50 (Histamine H3 receptor [3]): 0.094 µM | inhibition (Histamine H3 receptor [4]): inactive | Activity [5]: inactive | Activity [6]: inactive | inhibition [7]: inactive | inhibition [8]: inactive | inhibition [9]: inactive | Activity (HEK-293T): Non-Toxic | inhibition [10]: inactive | inhibition [11]: inactive | inhibition [12]: inactive | inhibition [13]: inactive

COc1ccc(NC2(c3cccc(Cl)c3)C(=O)N(C3CCCCC3)C(=O)/C2=C/c2ccccc2)cc1OC (stereo unspecified)
logP at 24 h [2]: 2.45 | EC50 (Histamine H3 receptor [3]): 0.0027 µM | inhibition (Histamine H3 receptor [4]): inactive | Activity [5]: inactive | Activity [6]: inactive | inhibition [7]: inactive | inhibition [8]: inactive | inhibition [9]: inactive | Activity (HEK-293T): Non-Toxic | inhibition [10]: inactive | inhibition [11]: inactive | inhibition [12]: inactive | inhibition [13]: inactive

COc1cc(NC2(c3cccc(Cl)c3)C(=O)N(C(C)(C)C)C(=O)/C2=C/c2ccccc2)cc(OC)c1OC (stereo unspecified)
logP at 24 h [2]: 2.96 | EC50 (Histamine H3 receptor [3]): 0.0027 µM | inhibition (Histamine H3 receptor [4]): inactive | Activity [5]: inactive | Activity [6]: inactive | inhibition [7]: inactive | inhibition [8]: inactive | inhibition [9]: inactive | Activity (HEK-293T): Non-Toxic | inhibition [10]: inactive | inhibition [11]: inactive | inhibition [12]: inactive | inhibition [13]: inactive | Activity (Mus musculus [14]): Active | Activity (Mus musculus [1]): inactive

O=C1C=CC2(C=C1)C(c1ccccc1)=CC(=O)N2C(C(=O)NC1CCCCC1)c1ccc(Cl)cc1 (stereo unspecified)
logP at 24 h [2]: 3.8 | EC50 (Histamine H3 receptor [3]): 0.104 µM | inhibition (Histamine H3 receptor [4]): inactive | Activity [5]: inactive | Activity [6]: inactive | inhibition [7]: inactive | inhibition [8]: inactive | inhibition [9]: inactive | Activity (HEK-293T): Non-Toxic | inhibition [10]: inactive | inhibition [11]: inactive | inhibition [12]: inactive | inhibition [13]: inactive
